Target: Chymotrypsinogen A (Bos taurus) (UniProt P00766)
Assay: In vitro inhibitory activity against bovin chymotrypsin

Row | IC50 [µM] | Compound
1 | > 10 | COC(=O)c1ccc(NS(=O)(=O)c2sc3ccc(F)cc3c2C)c(S(C)(=O)=O)c1 [4-(5-Fluoro-3-methyl-benzo[b]thiophene-2-sulfonylamino)-3-methanesulfonyl-benzoic acid methyl ester]
2 | > 10 | COC(=O)c1ccc(NS(=O)(=O)c2sc3ccc(Cl)cc3c2C)c(S(C)(=O)=O)c1 [4-(5-Chloro-3-methyl-benzo[b]thiophene-2-sulfonylamino)-3-methanesulfonyl-benzoic acid methyl ester]
3 | > 10 | CC(=O)c1ccc(NS(=O)(=O)c2sc3ccc(F)cc3c2C)c(S(C)(=O)=O)c1 [5-Fluoro-3-methyl-benzo[b]thiophene-2-sulfonic acid (4-acetyl-2-methanesulfonyl-phenyl)-amide]

— BindingDB's records for doi:10.1016/j.bmcl.2003.08.040 (Toa Eiyo, 2003)
